Results reported in ChEMBL document CHEMBL5505952, “Targeting SARS-CoV-2 entry processes: The promising potential and future of host-targeted small-molecule inhibitors” (Eur J Med Chem, 2024).

Tested on: SARS-CoV-2
Type: functional, organism-based
Settings: Severe acute respiratory syndrome coronavirus 2, Vero C1008

For CC(CN(C)C)CN1c2ccccc2Sc2ccccc21 (stereo unspecified) [METHYLPROMAZINE], the EC50 was 2420 nM.
